What was measured:
[1] = tested on: centrally acting emetogens (apomorphine IV) and peripherally acting emetogens (syrup of ipecac orally); settings: dogs; cited from earlier work
[2] = tested on: chemotherapy induced nausea and vomiting; settings: humans; cited from earlier work
[3] = tested on: apomorphine-induced emesis; assay: Apomorphine-induced emesis model; format: in vivo, dog; settings: single oral dose 5 mg/kg; FIGS. 5A-5B
Excerpt: Apomorphine-induced emesis model is a well-established canine model to investigate antiemetic actions of new compounds and has been used in studies investigating new NK1 antagonists (Furukawa et al. Biol Pharm Bull 36:974-979, 2013) as well as Cerenia and other antiemetic drugs used in dogs (Sedlacek et al. J Vet Pharmacol Therap 31:533-537, 2008).
The canine model of apomorphine-induced emesis is a well-established model to investigate antiemetic actions of new compounds and has been used in studies investigating new NK1 antagonists (Furukawa et al. Biol Pharm Bull 36:974-979, 2013) as well as Cerenia and other antiemetic drugs used in dogs (Sedlacek et al. J Vet Pharmacol Therap 31:533-537, 2008). This model was used to evaluate the antiemetic activity of telmapitant in non-aqueous solution formulations and solid formulations (FIGS. 4A and 4B). The onset of action (FIGS. 4A and 4B) as well as the duration of activity (FIGS. 5A and 5B) were investigated after a single oral administration. Intravenous (IV) administration of apomorphine (emetogenic challenge 0.03 mg/kg) was delivered to all individuals 2 h, 4 h, 6 h, 8 h, 24 h, and 120 h (FIGS. 4A and 4B) or 1 d, 3 d, 5 d, 6 d, and 7 d (FIGS. 5A and 5B). […] Any emetic events (vomiting episodes and/or retches) following each emetogenic challenge were recorded for 20 min. […]

## COc1ccc(C(C)(C)C)cc1CN[C@H]1C2CCN(CC2)[C@H]1C(c1ccccc1)c1ccccc1 [maropitant]
[1]
  antiemetic effectiveness against emetogens: effective

## C[C@@H](OC[C@@]1(c2ccccc2)CC[C@]2(CCC(=O)N2)CN1)c1cc(C(F)(F)F)cc(C(F)(F)F)c1 [rolapitant]
[2]
  efficacy and safety for prevention of chemotherapy induced nausea and vomiting: efficacious and safe

## C[C@@H](OC[C@@]1(c2ccccc2)CC[C@]2(CN1)NC(=O)NC2=O)c1cc(C(F)(F)F)cc(C(F)(F)F)c1 [telmapitant, (5R,8S)-8-[[(1R)-1-[3,5-bis(trifluoromethyl)phenyl]ethoxy]methyl]-8-phenyl-1,3,9-triazaspiro[4.5]decane-2,4-dione]
[3]
  antiemetic data at 5 mg/kg versus 7 mg/kg: not significantly different
